Reference: patent US20240124442A1, “TRICYCLIC-AMIDO-BICYCLIC PRMT5 INHIBITORS” (AMGEN INC., priority 2021, published 2024)

Tests used:
HCT116 MTAP null cells = test: HCT116 MTAP null cell line proliferation / cell viability (CellTiter-Glo, 6 days); assay type: cell-based; settings: 144 h; HCT116 MTAP null cells, 6 days treatment, CellTiter-Glo cell viability; read-out: HCT-116 MTAP null IC50
How it was run: (§1)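 Viability read by CellTiter-Glo luminescence after 6 days of compound treatment of HCT116 WT and MTAP-null cells (RPMI 1640, 10% FBS). Dose series were 1:3 steps from 1 or 10 μM (8–9 points), or 1:2 steps from 10 or 50 μM (22 points). IC50 from 4-parameter logistic or fixed-slope sigmoidal fit.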

HCT116 WT cells = test: HCT116 WT (parent) cell line proliferation / cell viability (CellTiter-Glo, 6 days); assay type: cell-based; settings: Homo sapiens, HCT-116, 144 h, 6 days treatment
How it was run: as §1

| SMILES | IC50 (HCT116 MTAP null cells) [nM] | IC50 (HCT116 WT cells) [nM] |
| --- | --- | --- |
| CN(C(=O)c1ccc2nc(N)c3c(cnn3C)c2c1)[C@@H]1COCc2cc(C(F)(F)F)ccc21 [Example 510, 4-amino-N,3-dimethyl-N-((4S)-7-(trifluoromethyl)-3,4-dihydro-1H-2-benzopyran-4-yl)-3H-pyrazolo[3,4-c]quinoline-8-carboxamide] | 48 | 4590 |
| CN(C(=O)c1ccc2nc(N)c3c(cnn3C)c2c1)[C@@H]1COCc2cc(C(F)(F)F)ncc21 [Example 511, 4-amino-N,3-dimethyl-N-((4S)-7-(trifluoromethyl)-3,4-dihydro-1H-pyrano[4,3-c]pyridin-4-yl)-3H-pyrazolo[3,4-c]quinoline-8-carboxamide] | 374 | 17400 |
| COc1ccc2c(n1)COC[C@H]2N(C)C(=O)c1cc2c(cc1F)nc(N)c1c2cnn1C [Example 513, 4-amino-7-fluoro-N-((5S)-2-methoxy-5,8-dihydro-6H-pyrano[3,4-b]pyridin-5-yl)-N,3-dimethyl-3H-pyrazolo[3,4-c]quinoline-8-carboxamide] | 168 | 10200 |
| CN(C(=O)c1cc2c(cc1F)nc(N)c1c2cnn1C)[C@@H]1COCc2cc(C(F)(F)F)ccc21 [Example 514, 4-amino-7-fluoro-N,3-dimethyl-N-((4S)-7-(trifluoromethyl)-3,4-dihydro-1H-2-benzopyran-4-yl)-3H-pyrazolo[3,4-c]quinoline-8-carboxamide] | 68 | 1520 |
| CN(C(=O)c1cc2c(cc1F)nc(N)c1c2cnn1C)[C@@H]1COCc2nc(C(F)(F)F)ccc21 [Example 515, 4-amino-7-fluoro-N,3-dimethyl-N-((5S)-2-(trifluoromethyl)-5,8-dihydro-6H-pyrano[3,4-b]pyridin-5-yl)-3H-pyrazolo[3,4-c]quinoline-8-carboxamide] | 37 | 3650 |
| Cn1ncc2c3cc(C(=O)N(C4CC4)[C@@H]4COCc5nc(C(F)(F)F)ccc54)c(F)cc3nc(N)c21 [Example 516, 4-amino-N-cyclopropyl-7-fluoro-3-methyl-N-((5S)-2-(trifluoromethyl)-5,8-dihydro-6H-pyrano[3,4-b]pyridin-5-yl)-3H-pyrazolo[3,4-c]quinoline-8-carboxamide] | 105 | 6520 |
| CN(C(=O)c1cc2c(cc1Cl)nc(N)c1c2cnn1C)[C@@H]1COCc2nc(C(F)(F)F)ccc21 [Example 519, 4-amino-7-chloro-N,3-dimethyl-N-((5S)-2-(trifluoromethyl)-5,8-dihydro-6H-pyrano[3,4-b]pyridin-5-yl)-3H-pyrazolo[3,4-c]quinoline-8-carboxamide] | 27 | 1390 |
| Cc1nn(C)c2c1c(N)nc1cnc(C(=O)N(C)[C@@H]3COCc4cc(C#N)ccc43)cc12 [Example 521, 4-amino-N-((4S)-7-cyano-3,4-dihydro-1H-2-benzopyran-4-yl)-N,1,3-trimethyl-1H-pyrazolo[4,3-c][1,7]naphthyridine-8-carboxamide] | 168 | 14100 |
| CN(C(=O)c1ccc2nc(N)c3cnn(C)c3c2c1)[C@@H]1COc2cc(C3CC3)ccc21 [Example 615, 4-amino-N-((3S)-6-cyclopropyl-2,3-dihydro-1-benzofuran-3-yl)-N,1-dimethyl-1H-pyrazolo[4,3-c]quinoline-8-carboxamide] | 14 | 1310 |
| CN(C(=O)c1ccc2nc(N)c3cnn(C)c3c2c1)[C@@H]1COc2cc(-c3ccn(C)c3)ccc21 [Example 616, 4-amino-N,1-dimethyl-N-((3S)-6-(1-methyl-1H-pyrrol-3-yl)-2,3-dihydro-1-benzofuran-3-yl)-1H-pyrazolo[4,3-c]quinoline-8-carboxamide] | 32 | 3670 |
| CN(C(=O)c1ccc2nc(N)c3cnn(C)c3c2c1)[C@@H]1COc2cc(C3=CCCCC3)ccc21 [Example 617, 4-amino-N-((3S)-6-(1-cyclohexen-1-yl)-2,3-dihydro-1-benzofuran-3-yl)-N,1-dimethyl-1H-pyrazolo[4,3-c]quinoline-8-carboxamide] | 55 | 1650 |
| CN(C(=O)c1ccc2nc(N)c3cnn(C)c3c2c1)[C@@H]1COc2cc(C3=CCOCC3)ccc21 [Example 618, 4-amino-N-((3S)-6-(3,6-dihydro-2H-pyran-4-yl)-2,3-dihydro-1-benzofuran-3-yl)-N,1-dimethyl-1H-pyrazolo[4,3-c]quinoline-8-carboxamide] | 10 | 786 |
| CN(C(=O)c1ccc2nc(N)c3cnn(C)c3c2c1)[C@@H]1COc2cc(C3=CCC(F)(F)CC3)ccc21 [Example 619, 4-amino-N-((3S)-6-(4,4-difluoro-1-cyclohexen-1-yl)-2,3-dihydro-1-benzofuran-3-yl)-N,1-dimethyl-1H-pyrazolo[4,3-c]quinoline-8-carboxamide] | 17 | 649 |

Other lines, results leading:

| IC50 (HCT116 MTAP null cells) [nM] | IC50 (HCT116 WT cells) [nM] | SMILES |
| --- | --- | --- |
| 107 | 8110 | CN(C(=O)c1ccc2nc(N)c3c(cnn3C)c2c1)[C@@H]1COCc2cc(C#N)ccc21 [Example 509, 4-amino-N-((4S)-7-cyano-3,4-dihydro-1H-2-benzopyran-4-yl)-N,3-dimethyl-3H-pyrazolo[3,4-c]quinoline-8-carboxamide] |
| 123 | 11100 | CN(C(=O)c1ccc2nc(N)c3c(cnn3C)c2c1)[C@@H]1COCc2nc(C(F)(F)F)ccc21 [Example 512, 4-amino-N,3-dimethyl-N-((5S)-2-(trifluoromethyl)-5,8-dihydro-6H-pyrano[3,4-b]pyridin-5-yl)-3H-pyrazolo[3,4-c]quinoline-8-carboxamide] |
| 18 | 342 | CC(C)CN(C(=O)c1cc2c(cc1F)nc(N)c1c2cnn1C)[C@@H]1COCc2nc(C(F)(F)F)ccc21 [Example 517, 4-amino-7-fluoro-3-methyl-N-(2-methylpropyl)-N-((5S)-2-(trifluoromethyl)-5,8-dihydro-6H-pyrano[3,4-b]pyridin-5-yl)-3H-pyrazolo[3,4-c]quinoline-8-carboxamide] |
| 965 | 9330 | CC(C)CN(C(=O)c1cc2c(cc1F)nc(N)c1c2cnn1C)[C@H]1COCc2nc(C(F)(F)F)ccc21 [Example 518, 4-amino-7-fluoro-3-methyl-N-(2-methylpropyl)-N-((5R)-2-(trifluoromethyl)-5,8-dihydro-6H-pyrano[3,4-b]pyridin-5-yl)-3H-pyrazolo[3,4-c]quinoline-8-carboxamide] |
| 25 | 2420 | Cc1cc2nc(N)c3c(cnn3C)c2cc1C(=O)N(C)[C@@H]1COCc2nc(C(F)(F)F)ccc21 [Example 520, 4-amino-N,3,7-trimethyl-N-((5S)-2-(trifluoromethyl)-5,8-dihydro-6H-pyrano[3,4-b]pyridin-5-yl)-3H-pyrazolo[3,4-c]quinoline-8-carboxamide] |
| 6 | 634 | CN(C(=O)c1ccc2nc(N)c3cnn(C)c3c2c1)[C@@H]1COc2cc(-c3cnn(C(F)(F)F)c3)ccc21 [Example 620, 4-amino-N,1-dimethyl-N-((3S)-6-(1-(trifluoromethyl)-1H-pyrazol-4-yl)-2,3-dihydro-1-benzofuran-3-yl)-1H-pyrazolo[4,3-c]quinoline-8-carboxamide] |
| 25 | 1040 | CCN(C(=O)c1ccc2nc(N)c3c(c2c1)CO[C@@H]3C)[C@@H]1COCc2cc(C3CC3)ccc21 [Example 621, (3R)-4-amino-N-((4S)-7-cyclopropyl-3,4-dihydro-1H-2-benzopyran-4-yl)-N-ethyl-3-methyl-1,3-dihydrofuro[3,4-c]quinoline-8-carboxamide] |
